According to patent US9944602B2, “Piperidinone herbicides” (E. I. DU PONT DE NEMOURS AND COMPANY, priority 2014, dated 2018):

What was measured:
Assay type in all cases: in vivo
[1] = test system: barnyardgrass (Echinochloa crus-galli); test: Test A preemergence barnyardgrass; conditions: 0 to 100 scale, 0 no effect, 100 complete control
Procedure, shortened: (§1)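 Scores reflect visual comparison with untreated controls after ~10 d in the greenhouse (0 none, 100 complete control). Treatment was a surfactant-containing non-phytotoxic solvent formulation, sprayed onto soil after seeding or onto seedlings at one to two leaves, 2–10 cm tall.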

[2] = test system: kochia (Kochia scoparia); test: Test A preemergence kochia; conditions: 0 to 100 scale, 0 no effect, 100 complete control
Procedure, shortened: as §1

[3] = test system: ragweed (common ragweed, Ambrosia elatior); test: Test A preemergence ragweed; conditions: 0 to 100 scale, 0 no effect, 100 complete control
Procedure, shortened: as §1

[4] = test system: ryegrass, Italian (Italian ryegrass, Lolium multiflorum); test: Test A preemergence ryegrass, Italian; conditions: 0 to 100 scale, 0 no effect, 100 complete control
Procedure, shortened: as §1

[5] = test system: foxtail, giant (giant foxtail, Setaria faberii); test: Test A preemergence foxtail, giant; conditions: 0 to 100 scale, 0 no effect, 100 complete control
Procedure, shortened: as §1

[6] = test system: pigweed (Amaranthus retroflexus); test: Test A preemergence pigweed; conditions: 0 to 100 scale, 0 no effect, 100 complete control
Procedure, shortened: as §1

[7] = test system: barnyardgrass (Echinochloa crus-galli); test: Test A postemergence barnyardgrass; conditions: 0 to 100 scale, 0 is no effect, 100 is complete control
Procedure, shortened: as §1

[8] = test system: kochia (Kochia scoparia); test: Test A postemergence kochia; conditions: 0 to 100 scale, 0 is no effect, 100 is complete control
Procedure, shortened: as §1

[9] = test system: ragweed (common ragweed, Ambrosia elatior); test: Test A postemergence ragweed; conditions: 0 to 100 scale, 0 is no effect, 100 is complete control
Procedure, shortened: as §1

[10] = test system: ryegrass, Italian (Italian ryegrass, Lolium multiflorum); test: Test A postemergence ryegrass, Italian; conditions: 0 to 100 scale, 0 is no effect, 100 is complete control
Procedure, shortened: as §1

[11] = test system: foxtail, giant (giant foxtail, Setaria faberii); test: Test A postemergence foxtail, giant; conditions: 0 to 100 scale, 0 is no effect, 100 is complete control
Procedure, shortened: as §1

[12] = test system: pigweed (Amaranthus retroflexus); test: Test A postemergence pigweed; conditions: 0 to 100 scale, 0 is no effect, 100 is complete control
Procedure, shortened: as §1

[13] = test system: wheat (Triticum aestivum); test: Test A postemergence wheat; conditions: 0 to 100 scale, 0 is no effect, 100 is complete control
Procedure, shortened: as §1

[14] = test system: corn (Zea mays); test: Test A postemergence corn; conditions: 0 to 100 scale, 0 is no effect, 100 is complete control
Procedure, shortened: as §1

[15] = test system: blackgrass (Alopecurus myosuroides); test: Test A postemergence blackgrass; conditions: 0 to 100 scale, 0 is no effect, 100 is complete control
Procedure, shortened: as §1

[16] = test system: galium (catchweed bedstraw, Galium aparine); test: Test A postemergence galium; conditions: 0 to 100 scale, 0 is no effect, 100 is complete control
Procedure, shortened: as §1

[17] = test system: rice (Oryza sativa); test: Test B flooded paddy test rice; conditions: Table B, Flood, 500 g ai/ha, scale 0 to 100
Procedure, shortened: (§2)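 Once seedlings reached two leaves, pots were flooded 3 cm deep and treated via the paddy water, which remained at that level. Evaluation was visual, against controls, after 13 to 15 d under greenhouse conditions.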

[18] = test system: sedge, umbrella (small-flower umbrella sedge, Cyperus difformis); test: Test B flooded paddy test sedge, umbrella; conditions: Table B, Flood, 500 g ai/ha, scale 0 to 100
Procedure, shortened: as §2

[19] = test system: ducksalad (Heteranthera limosa); test: Test B flooded paddy test ducksalad; conditions: Table B, Flood, 500 g ai/ha, scale 0 to 100
Procedure, shortened: as §2

[20] = test system: barnyardgrass (Echinochloa crus-galli); test: Test B flooded paddy test barnyardgrass; conditions: Table B, Flood, 500 g ai/ha, scale 0 to 100
Procedure, shortened: as §2

[21] = test system: rice (Oryza sativa); test: Test C flooded paddy test rice; conditions: Table C, Flood, scale 0 to 100
Source text: (§3) Plant species in the flooded paddy test consisted of rice (Oryza sativa), sedge, umbrella (small-flower umbrella sedge, Cyperus difformis), ducksalad (Heteranthera limosa), and barnyardgrass (Echinochloa crus-galli) grown to the 2-leaf stage for testing. At time of treatment, test pots were flooded to 3 cm above the soil surface, treated by application of test compounds directly to the paddy water, and then maintained at that water depth for the duration of the test. Treated plants and controls were maintained in a greenhouse for 13 to 15 d, after which time all species were compared to controls and visually evaluated. Plant response ratings, summarized in Table C, are based on a scale of 0 to 100 where 0 is no effect and 100 is complete control. A dash (-) response means no test result.

[22] = test system: sedge, umbrella (small-flower umbrella sedge, Cyperus difformis); test: Test C flooded paddy test sedge, umbrella; conditions: Table C, Flood, scale 0 to 100
Source text: as §3

[23] = test system: ducksalad (Heteranthera limosa); test: Test C flooded paddy test ducksalad; conditions: Table C, Flood, scale 0 to 100
Source text: as §3

[24] = test system: barnyardgrass (Echinochloa crus-galli); test: Test C flooded paddy test barnyardgrass; conditions: Table C, Flood, scale 0 to 100
Source text: as §3

O=C1NCCC(c2cccc(C(F)(F)F)c2)C1C(=O)Nc1cccc(Cl)c1F (racemic) [Compound 16]
Barnyardgrass plant response rating ([1]; 125 g ai/ha): 70
Barnyardgrass plant response rating ([1]; 500 g ai/ha): 90
Kochia plant response rating ([2]; 125 g ai/ha): 30
Kochia plant response rating ([2]; 500 g ai/ha): 50
Ragweed plant response rating ([3]; 125 g ai/ha): 0
Ragweed plant response rating ([3]; 500 g ai/ha): 0
Ryegrass, Italian plant response rating ([4]; 125 g ai/ha): 20
Ryegrass, Italian plant response rating ([4]; 500 g ai/ha): 40
Foxtail, Giant plant response rating ([5]; 125 g ai/ha): 90
Foxtail, Giant plant response rating ([5]; 500 g ai/ha): 90
Pigweed plant response rating ([6]; 125 g ai/ha): 0
Pigweed plant response rating ([6]; 500 g ai/ha): 0
Plant response rating, Barnyardgrass ([7]; 125 g ai/ha): 70
Plant response rating, Barnyardgrass ([7]; 500 g ai/ha): 90
Plant response rating, Kochia ([8]; 125 g ai/ha): 0
Plant response rating, Kochia ([8]; 500 g ai/ha): 20
Plant response rating, Ragweed ([9]; 125 g ai/ha): 0
Plant response rating, Ragweed ([9]; 500 g ai/ha): 0
Plant response rating, Ryegrass, Italian ([10]; 125 g ai/ha): 0
Plant response rating, Ryegrass, Italian ([10]; 500 g ai/ha): 20
Plant response rating, Foxtail, Giant ([11]; 125 g ai/ha): 80
Plant response rating, Foxtail, Giant ([11]; 500 g ai/ha): 80
Plant response rating, Pigweed ([12]; 125 g ai/ha): 0
Plant response rating, Pigweed ([12]; 500 g ai/ha): 0
Plant response rating, Wheat ([13]; 125 g ai/ha): 20
Plant response rating, Wheat ([13]; 500 g ai/ha): 30
Plant response rating, Corn ([14]; 125 g ai/ha): 0
Plant response rating, Corn ([14]; 500 g ai/ha): 30
Plant response rating, Blackgrass ([15]; 125 g ai/ha): 40
Plant response rating, Blackgrass ([15]; 500 g ai/ha): 60
Plant response rating, Galium ([16]; 125 g ai/ha): 20
Plant response rating, Galium ([16]; 500 g ai/ha): 20
Plant response rating [17]: 0
Plant response rating [18]: 0
Plant response rating [19]: 0
Plant response rating [20]: 0
Plant response rating ([21]; 31 g ai/ha): 0
Plant response rating ([21]; 62 g ai/ha): 0
Plant response rating ([21]; 125 g ai/ha): 0
Plant response rating ([21]; 250 g ai/ha): 0
Plant response rating ([22]; 31 g ai/ha): 0
Plant response rating ([22]; 62 g ai/ha): 0
Plant response rating ([22]; 125 g ai/ha): 0
Plant response rating ([22]; 250 g ai/ha): 0
Plant response rating ([23]; 31 g ai/ha): 0
Plant response rating ([23]; 62 g ai/ha): 0
Plant response rating ([23]; 125 g ai/ha): 0
Plant response rating ([23]; 250 g ai/ha): 0
Plant response rating ([24]; 31 g ai/ha): 0
Plant response rating ([24]; 62 g ai/ha): 0
Plant response rating ([24]; 125 g ai/ha): 0
Plant response rating ([24]; 250 g ai/ha): 0

O=C1NCCC(c2cccc(C(F)(F)F)c2)C1C(=O)Nc1cccc(F)c1Cl (racemic) [Compound 19]
Barnyardgrass plant response rating ([1]; 125 g ai/ha): 70
Barnyardgrass plant response rating ([1]; 500 g ai/ha): 80
Kochia plant response rating ([2]; 125 g ai/ha): 0
Kochia plant response rating ([2]; 500 g ai/ha): 20
Ragweed plant response rating ([3]; 125 g ai/ha): 0
Ragweed plant response rating ([3]; 500 g ai/ha): 20
Ryegrass, Italian plant response rating ([4]; 125 g ai/ha): 20
Ryegrass, Italian plant response rating ([4]; 500 g ai/ha): 30
Foxtail, Giant plant response rating ([5]; 125 g ai/ha): 80
Foxtail, Giant plant response rating ([5]; 500 g ai/ha): 90
Pigweed plant response rating ([6]; 125 g ai/ha): 0
Pigweed plant response rating ([6]; 500 g ai/ha): 0
Plant response rating, Barnyardgrass ([7]; 125 g ai/ha): 60
Plant response rating, Barnyardgrass ([7]; 500 g ai/ha): 80
Plant response rating, Kochia ([8]; 125 g ai/ha): 0
Plant response rating, Kochia ([8]; 500 g ai/ha): 20
Plant response rating, Ragweed ([9]; 125 g ai/ha): 0
Plant response rating, Ragweed ([9]; 500 g ai/ha): 0
Plant response rating, Ryegrass, Italian ([10]; 125 g ai/ha): 0
Plant response rating, Ryegrass, Italian ([10]; 500 g ai/ha): 20
Plant response rating, Foxtail, Giant ([11]; 125 g ai/ha): 70
Plant response rating, Foxtail, Giant ([11]; 500 g ai/ha): 80
Plant response rating, Pigweed ([12]; 125 g ai/ha): 0
Plant response rating, Pigweed ([12]; 500 g ai/ha): 0
Plant response rating, Wheat ([13]; 125 g ai/ha): 0
Plant response rating, Wheat ([13]; 500 g ai/ha): 30
Plant response rating, Corn ([14]; 125 g ai/ha): 0
Plant response rating, Corn ([14]; 500 g ai/ha): 50
Plant response rating, Blackgrass ([15]; 125 g ai/ha): 40
Plant response rating, Blackgrass ([15]; 500 g ai/ha): 50
Plant response rating, Galium ([16]; 125 g ai/ha): 20
Plant response rating, Galium ([16]; 500 g ai/ha): 20
Plant response rating [17]: 0
Plant response rating [18]: 0
Plant response rating [19]: 60
Plant response rating [20]: 60
Plant response rating ([21]; 31 g ai/ha): 0
Plant response rating ([21]; 62 g ai/ha): 0
Plant response rating ([21]; 125 g ai/ha): 0
Plant response rating ([21]; 250 g ai/ha): 0
Plant response rating ([22]; 31 g ai/ha): 0
Plant response rating ([22]; 62 g ai/ha): 0
Plant response rating ([22]; 125 g ai/ha): 0
Plant response rating ([22]; 250 g ai/ha): 0
Plant response rating ([23]; 31 g ai/ha): 0
Plant response rating ([23]; 62 g ai/ha): 0
Plant response rating ([23]; 125 g ai/ha): 0
Plant response rating ([23]; 250 g ai/ha): 0
Plant response rating ([24]; 31 g ai/ha): 0
Plant response rating ([24]; 62 g ai/ha): 0
Plant response rating ([24]; 125 g ai/ha): 0
Plant response rating ([24]; 250 g ai/ha): 0
